“Also recorded” adds a separate entry of the source. Square brackets hold non-standard residues; d marks the D form. Peptide text beside a SMILES is read from it. * marks the point of attachment. TOAC = CC1(C)CC(N)(C(=O)O)CC(C)(C)N1[O]; Leu(ol) = CC(C)C[C@H](N)CO; Octanoyl = CCCCCCCC(=O)*; Api = NC1(C(=O)O)CCNCC1; Aib = CC(C)(N)C(=O)O
Tests used:
[1] = tested on: human dermal fibroblasts (HDF); type: cell-based; settings: MTT, 24 h exposure; average error about ±2 μM
Description: (§1) We studied the effect of TG and its analogues on normal (HDF) and transformed (T67 and HeLa) cells. The cellular viability was assessed after 24 hours of exposure to the peptides by the MTT assay (Table 1).
(§2) Culture media, foetal bovine serum (FBS) and antibiotics were purchased from Carlo Erba Dasit Group. The T67 human glioma cell line was derived by Lauro et al.[49] from a World Health Organization (WHO) Grade III gemistocytic astrocytoma. Human dermal fibroblasts (HDF) were obtained by ATCC. HDF were cultured in Fibroblast Basal Medium (ATCC) supplemented with 10% FBS. T67 and HeLa cells were cultured in Dulbecco’s modified Eagle’s medium (MMedical) supplemented with 10% FBS, 100 UI/ml penicillin, 100 μg/ml streptomycin, and 40 μg/ml gentamycin, and kept in a 5% CO2 atmosphere at 37 °C, with saturating humidity. Cell viability and number were measured by trypan blue exclusion method.
(§3) Cytotoxicity of peptides was estimated using a MTT assay. All the chemicals used for this assay have been purchased by sigma Aldrich and used without further purification. T67, HeLa and HDF cells were seeded in 24-well plates at 1 × 10^5 cells/well. Experiments were performed after 24 h of incubation at 37 °C in 5% CO2. After this time cells were washed and treated for 24 h with different concentrations of peptides; the cells are then incubated for 60 mins with 300 μM of MTT in culture medium. The absorbance of each well was measured at 450 nm with a spectrofluorometer (Wallac Victor multilabel counter; Perkin-Elmer Inc., Boston, MA, USA). Data are reported as the mean ± standard deviation of at least three independent experiments.

[2] = tested on: T67 human glioma cell line; type: cell-based; settings: MTT, 24 h exposure; average error about ±2 μM
Description: as §1, §2, §3

HeLa cells [3] = type: cell-based, human; settings: MTT, 24 h exposure; average error about ±2 μM
Description: as §1, §2, §3

S. aureus = settings: relative to TG; cited from earlier work
HeLa cells [4] = test: EPR of TOAC-labelled peptides with intact HeLa cells; type: binding, human; settings: 125 μM, 25 nmol per million cells, 15–20 min incubation
Text: (§4) EPR spectroscopy has been performed on TOAC-labelled analogues to determine the amount of peptide bound to the membrane and to evaluate the peptide dynamics. […] We studied all analogues in buffer solution and in POPC SUV, the same systems used for CD spectroscopy; four selected analogues (see cytotoxicity assay paragraph) were also studied interacting with a suspension of intact cells of the three cell lines. […] Additionally, from the simulations, we determined the value of the Azz hyperfine component that gives an indication of the polarity of the environment. All EPR spectra and simulations are reported in the Supplementary Information (Figs S1–S4), while in Fig. 4, we report an overview of the experiments. In the top part of the figure, we show the spectra of [TOAC^1] TG in buffer solution (blue), in SUV (red), and interacting with T67 cells (magenta). In the bottom part, we show the spectra of the other three peptides, representative of the different degrees of biological activity, interacting with intact T67 cells. […]
(§5) Methanol, 99.9%, spectrophotometric grade, [4-(2-hydroxyethyl)-1-piperazinyl]ethanesulfonic acid (HEPES), and PBS buffer (NaCl 137 mM, KCl 2.7 mM, Na2HPO4 10 mM, KH2PO4 1.8 mM, pH 7.4) were purchased from Sigma-Aldrich. […] The spectra were recorded after 15–20 minutes of incubation of the peptide to the cell suspension. […]

[5] = EPR of TOAC-labelled peptides in POPC SUV; type: binding; settings: P:L 1:100, 78 μM peptide
Text: as §4, with “[TOAC^1]” for “[TOAC^1] TG in buffer solution (blue), in SUV (red), and interacting with T67 cells (magenta). In the bottom part, we show the spectra of the other three peptides, representative of the different degrees of biological activity, interacting with intact T67 cells.”
The EPR spectra of all TOAC-labelled peptides recorded in POPC SUV are very similar to each other, and are shown in the Supplementary Information, Fig. S1. […]
(§6) Methanol, 99.9%, spectrophotometric grade, [4-(2-hydroxyethyl)-1-piperazinyl]ethanesulfonic acid (HEPES), and PBS buffer (NaCl 137 mM, KCl 2.7 mM, Na2HPO4 10 mM, KH2PO4 1.8 mM, pH 7.4) were purchased from Sigma-Aldrich. […] The spectra were recorded after 15–20 minutes of incubation of the peptide to the cell suspension. […] The microwave frequency was measured by a frequency counter, HP5342A. […]

T67, HeLa and HDF cells = test: MTT cytotoxicity assay, summary over the three cell lines; type: cell-based, human; settings: 24 h
Description: as §1, §3

HDF cells = test: EPR of TOAC-labelled peptides with intact HDF cells; type: binding, human; settings: 125 μM, 25 nmol per million cells, 15–20 min incubation
Text: as §4, §5

[6] = tested on: suspensions of intact cells (T67, HeLa, HDF); test: EPR binding to suspensions of intact cells, summary; design: species or system human; settings: over the three cell lines
Text: The EPR spectra of all peptides interacting with suspensions of intact cells (Fig. S3) show two spectral components: the three sharp lines characteristic of peptides in aqueous solution and the broad lineshape of peptides bound to the membrane. Therefore all peptides are not fully bound to the cell membranes. The presence of two well-defined spectral components implies that the exchange of the peptides between the two phases (membrane and aqueous solution) is slow on the EPR timescale, with a frequency less than ≈1 MHz. The amount of peptide bound to the membrane is obtained from the relative contribution of each spectral component to the total area of the simulated spectrum. A detailed example of the procedure is reported in the Supplementary Information, Fig. S4. The spectra show small variations in binding for the same peptide in different cell lines, and large variations for different peptides in the same cell line. Among the analogues, [TOAC^1, Lys^6] TG and [TOAC^1, Leu^4] […]
as §6

T67 cells = test: EPR of TOAC-labelled peptides with intact T67 cells; type: binding, human; settings: 125 μM, 25 nmol per million cells, 15–20 min incubation
Text: as §4, §5

Row | Compound | EC50 [1] [µM] | EC50 [2] [µM] | EC50 (HeLa cells [3]) [µM] | antibacterial activity (S. aureus) | % membrane-bound peptide HeLa (HeLa cells [4]) [%] | % membrane-bound peptide POPC SUV [5] [%] | cytotoxicity / selectivity in words (T67, HeLa and HDF cells) | % membrane-bound peptide HDF (HDF cells) [%] | percentage of peptide bound to cells [6] | % membrane-bound peptide T67 (T67 cells) [%]
1 | CCCCCCCC(=O)NC(C)(C)C(=O)NCC(=O)N[C@@H](CC(C)C)C(=O)NC(C)(C)C(=O)N[C@@H](CCCCN)C(=O)N[C@@H](CCCCN)C(=O)N[C@@H](CC(C)C)C(=O)NC(C)(C)C(=O)NCC(=O)N[C@H](C(=O)N[C@H](CO)CC(C)C)[C@@H](C)CC [[Lys^5,6] TG, Oct-UGLUKKLUGI-Lol] | 15 | 7 | 10 | remarkably increased activity |  |  |  |  |  | 
2 | CCCCCCCC(=O)NC1(C(=O)NCC(=O)N[C@@H](CC(C)C)C(=O)NC2(C(=O)NCC(=O)NCC(=O)N[C@@H](CC(C)C)C(=O)NC(C)(C)C(=O)NCC(=O)N[C@H](C(=O)N[C@H](CO)CC(C)C)[C@@H](C)CC)CCNCC2)CC(C)(C)N([O])C(C)(C)C1 [[TOAC^1, Api^4] TG, Oct-XGLZGGLUGI-Lol] (Octanoyl-[TOAC]GL[Api]GGL[Aib]GI[Leu(ol)]) | > 20 |  | > 20 |  | 21 | >99 | selective toxicity; also recorded: selective cytotoxicity towards a cancer cell line | 28 |  | 
3 | CCCCCCCC(=O)NC1(C(=O)NCC(=O)N[C@@H](CC(C)C)C(=O)NC(C)(C)C(=O)NCC(=O)NCC(=O)N[C@@H](CC(C)C)C(=O)NC(C)(C)C(=O)NCC(=O)N[C@H](C(=O)N[C@H](CO)CC(C)C)[C@@H](C)CC)CC(C)(C)N([O])C(C)(C)C1 [[TOAC^1] TG, Oct-XGLUGGLUGI-Lol] (Octanoyl-[TOAC]GL[Aib]GGL[Aib]GI[Leu(ol)]) | 5 | 1 | 3 |  | 78 | 100 |  | 84 | ~ 80% | 85

Reference: publication PMC4819177, “The rational search for selective anticancer derivatives of the peptide Trichogin GA IV: a multi-technique biophysical approach” (Scientific Reports, 2016)
